In the supplement of paper PMC11061612 one finds Bliss excess data, which are given here for seven compounds.

What all share (test): Bliss excess, mean over the matrix (fraction); higher = more synergy
In assay [1] the test system is C3A (Hepatocellular Carcinoma). A digest of the protocol:
(§1)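 Bliss excess equals the observed combination effect minus the expected value EA + EB − EA·EB, where EA and EB are the effects of each agent alone. Combination Emax is the second-highest inhibition within the matrix. Inhibition was scaled from CellTiter-Glo 2.0 luminescence, with 0 set by vehicle wells and 1 by blank wells, after 72 hours of two-drug dosing of cells plated in 1536-well plates.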

In a further assay the test system is NCI-H2369 (Mesothelioma). In short, it runs like this: as §1
The next assay deals with SK-N-FI (Neuroblastoma). In short, it runs like this: as §1
The next assay relates to ES7 (Ewing's Sarcoma). A digest of the protocol: as §1
Assay [2] relates to SNU-C5 (Colorectal Carcinoma). A digest of the protocol: as §1
The test system of assay [3] is DMS-273 (Small Cell Lung Carcinoma). In short, it runs like this:
as §1

Assay [4] relates to TE-5 (Esophageal Squamous Cell Carcinoma). A digest of the protocol: as §1
For assay [5], the system named is CFPAC-1 (Pancreatic Carcinoma). In short, it runs like this:
as §1

A further assay concerns CAL-78 (Chondrosarcoma). A digest of the protocol:
as §1

The subject of assay [6] is KARPAS-1106P (B-Cell Non-Hodgkin's Lymphoma). A digest of the protocol:
as §1

The subject of assay [7] is SW756 (Cervical Carcinoma). In short, it runs like this: as §1
For assay [8], the system named is SUIT-2 (Pancreatic Carcinoma). A digest of the protocol: as §1
Another assay concerns SN12C (Kidney Carcinoma). In short, it runs like this: as §1
For another assay, the system named is NCI-H2595 (Mesothelioma). In short, it runs like this: as §1
In assay [9] the test system is 697 (B-Lymphoblastic Leukemia). A digest of the protocol: as §1
Assay [10] deals with TGBC24TKB (Biliary Tract Carcinoma). In short, it runs like this:
as §1

The next assay deals with DSH1 (Bladder Carcinoma). A digest of the protocol: as §1
For assay [11], the system named is OCI-AML2 (Acute Myeloid Leukemia). In short, it runs like this: as §1
Assay [12] deals with KM-H2 (Hodgkin's Lymphoma). A digest of the protocol:
as §1

For assay [13], the system named is MDA-MB-157 (Breast Carcinoma). A digest of the protocol: as §1

As to `CN(C)CCCOc1ccc(-c2ccc3ncc4c(c3c2)n(C2CCOCC2)c(=O)n4C)cn1` [AZD0156] + CCN(CCO)CCCOc1ccc2c(Nc3cc(CC(=O)Nc4cccc(F)c4)[nH]n3)ncnc2c1 [AZD2811] (first compound max 1 µM, 7x7, partner max 1 µM), the Bliss excess in [1] is -0.0792; in the assay with NCI-H2369 (Mesothelioma), -0.0392; in the assay with SK-N-FI (Neuroblastoma), -0.0144; with ES7 (Ewing's Sarcoma) it was -0.0172; in [2], 0.0043; in assay [3], 0.0307. Moreover, the Bliss excess in assay [4] is -0.0536; in [5] it was -0.0713; in the assay with CAL-78 (Chondrosarcoma), 0.006; in assay [6], -0.0003; in assay [7], -0.016; in assay [8], -0.0029. For the same compound, the Bliss excess is -0.0563 with SN12C (Kidney Carcinoma); -0.0334 in the assay on NCI-H2595 (Mesothelioma); -0.015 in [9]; -0.0009 in assay [10]; 0.0062 in the assay with DSH1 (Bladder Carcinoma); 0.0665 in assay [11]. In addition, the Bliss excess in assay [12] is 0.0446; in [13], -0.0069.

With `COc1cc2c(cc1OCCCCCOc1cc3c(cc1OC)C(=O)N1C=C(C)C[C@H]1C=N3)N=C[C@@H]1CC(C)=CN1C2=O` [SG3199] + O=C(c1cc(Cc2n[nH]c(=O)c3ccccc23)ccc1F)N1CCN(C(=O)C2CC2)CC1 [Olaparib] (first compound max 0.001 µM, 7x7, partner max 10 µM), the Bliss excess in assay [1] is -0.0528; with NCI-H2369 (Mesothelioma), -0.035; in the assay with SK-N-FI (Neuroblastoma) it was -0.0296; in the assay with ES7 (Ewing's Sarcoma), 0.0011; in assay [2] it was -0.0362; in assay [3], 0.002. The Bliss excess in assay [4] is -0.0665; in assay [5], -0.0329; with CAL-78 (Chondrosarcoma), -0.0831; in assay [6] it was -0.0202; in assay [7], 0.0091; in assay [8], -0.0029. Also, the Bliss excess in the assay on SN12C (Kidney Carcinoma) is -0.0697; in the assay on NCI-H2595 (Mesothelioma), -0.0437; in [9] it was 0.0376; in assay [10], -0.0087; in the assay with DSH1 (Bladder Carcinoma), -0.0442; in [11] it was -0.0546. Further, the Bliss excess in assay [12] is 0.0232; in assay [13], -0.0185.

Regarding `COc1cccc(OCCCN)c1-c1cc(Nc2cnc(C#N)cn2)n[nH]1` [Prexasertib] + C[C@@H]1COCCN1C2=NC(=NC(=C2)C3(CC3)[S@](=N)(=O)C)C4=C5C=CNC5=NC=C4 [AZD6738] (first compound max 1 µM, 7x7, partner max 10 µM), the Bliss excess in [1] is -0.034; in the assay with NCI-H2369 (Mesothelioma) it was -0.0274; in the assay on SK-N-FI (Neuroblastoma), 0.0336; in the assay with ES7 (Ewing's Sarcoma), -0.0416; in assay [2], -0.0143; in [3] it was -0.0374. Further, the Bliss excess in assay [4] was 0.0203; in assay [5], -0.0284; with CAL-78 (Chondrosarcoma), -0.0331; in [6], -0.0714; in assay [7] it was -0.0307; in assay [8], -0.03. In addition, the Bliss excess with SN12C (Kidney Carcinoma) is 0.0012; in the assay on NCI-H2595 (Mesothelioma), -0.0279; in [9], 0.0031; in assay [10], -0.0038; in the assay on DSH1 (Bladder Carcinoma) it was -0.0083; in [11], -0.021. For the same compound, the Bliss excess in assay [12] is -0.0214; in assay [13], -0.0256.

Take `NC1(C(=O)N[C@@H](CCO)c2ccc(Cl)cc2)CCN(c2ncnc3[nH]ccc23)CC1` [Capivasertib] + CC(C)n1c(=O)n(C)c2cnc3cc(F)c(-c4ccc(OCCCN5CCCCC5)nc4)cc3c21 [AZD1390] (first compound max 10 µM, 7x7, partner max 0.3 µM): the Bliss excess is -0.0724 in [1]; -0.0104 with NCI-H2369 (Mesothelioma); -0.0588 in the assay with SK-N-FI (Neuroblastoma); -0.0471 in the assay with ES7 (Ewing's Sarcoma); -0.052 in [2]; -0.0281 in assay [3]. Moreover, the Bliss excess is -0.0254 in [4]; -0.0828 in [5]; -0.0382 with CAL-78 (Chondrosarcoma); -0.0004 in [6]; -0.0647 in assay [7]; -0.0441 in [8]. In addition, the Bliss excess in the assay on SN12C (Kidney Carcinoma) is -0.0454; in the assay with NCI-H2595 (Mesothelioma), -0.0609; in assay [9], -0.0197; in assay [10] it was -0.0261; in the assay on DSH1 (Bladder Carcinoma) it was -0.0895; in [11], -0.0448. Also, the Bliss excess is -0.0554 in assay [12] and -0.0306 in [13].

In the case of `COc1cc2ncnc(Nc3ccc(F)c(Cl)c3)c2cc1OCCCN1CCOCC1` [Gefitinib] + CC(C)n1c(=O)n(C)c2cnc3cc(F)c(-c4ccc(OCCCN5CCCCC5)nc4)cc3c21 [AZD1390] (first compound max 10 µM, 7x7, partner max 0.3 µM), the Bliss excess in assay [1] was -0.11; in the assay with NCI-H2369 (Mesothelioma) it was -0.0614; in the assay on SK-N-FI (Neuroblastoma) it was -0.0391; in the assay on ES7 (Ewing's Sarcoma), -0.0916; in assay [2] it was -0.0751; in assay [3], -0.0068. The Bliss excess in [4] is -0.045; in assay [5], -0.0676; in the assay on CAL-78 (Chondrosarcoma), -0.0625; in assay [6] it was -0.0393; in assay [7] it was -0.0551; in assay [8], -0.0527. The Bliss excess in the assay on SN12C (Kidney Carcinoma) is -0.0255; in the assay with NCI-H2595 (Mesothelioma), -0.0596; in assay [9], -0.0787; in [10] it was -0.0379; with DSH1 (Bladder Carcinoma), -0.0351; in assay [11] it was -0.041. For the same compound, the results for the Bliss excess in assay [12] and in [13] were -0.0312 and -0.0453, respectively.

With `Cc1cc2ncnn2cc1Nc1ncc2c(n1)n(C1CCOCC1)c(=O)n2C` [AZD7648] + CCN(CCO)CCCOc1ccc2c(Nc3cc(CC(=O)Nc4cccc(F)c4)[nH]n3)ncnc2c1 [AZD2811] (first compound max 10 µM, 7x7, partner max 1 µM), the Bliss excess was 0.0219 in assay [1]; 0.0252 with NCI-H2369 (Mesothelioma); 0.0094 with SK-N-FI (Neuroblastoma); -0.0538 in the assay with ES7 (Ewing's Sarcoma); 0.0093 in [2]; -0.0368 in [3]. For the same compound, the Bliss excess in assay [4] was -0.0237; in assay [5] it was 0.0181; with CAL-78 (Chondrosarcoma), -0.0053; in assay [6], 0.0642; in [7] it was -0.0209; in assay [8], -0.0169. Further, the Bliss excess was -0.01 in the assay on SN12C (Kidney Carcinoma); 0.0183 with NCI-H2595 (Mesothelioma); 0.018 in assay [9]; -0.0157 in [10]; 0.0145 in the assay on DSH1 (Bladder Carcinoma); -0.0004 in assay [11]. The Bliss excess in [12] was found to be 0.0507; in assay [13], 0.0572.

Consider `Cc1nc(Nc2ncc(C(=O)Nc3c(C)cccc3Cl)s2)cc(N2CCN(CCO)CC2)n1` [Dasatinib] + CC(=O)Nc1cccc(-n2c(=O)n(C3CC3)c(=O)c3c(Nc4ccc(I)cc4F)n(C)c(=O)c(C)c32)c1 [Trametinib] (first compound max 2 µM, 7x7, partner max 1 µM), for which the Bliss excess in assay [1] was -0.0059; with NCI-H2369 (Mesothelioma), -0.0535; in the assay on SK-N-FI (Neuroblastoma), 0.0118; with ES7 (Ewing's Sarcoma), -0.0112; in assay [2], -0.013; in assay [3] it was -0.0922. The Bliss excess in [4] is -0.0099; in assay [5], 0.106; in the assay with CAL-78 (Chondrosarcoma), -0.108; in assay [6], 0.122; in assay [7], -0.0659; in assay [8], 0.0197. Moreover, the Bliss excess in the assay on SN12C (Kidney Carcinoma) was -0.0254; in the assay on NCI-H2595 (Mesothelioma), -0.0413; in assay [9], -0.0461; in assay [10], 0.106; in the assay with DSH1 (Bladder Carcinoma), -0.0516; in assay [11] it was 0.0363. The Bliss excess in assay [12] was -0.0367; in assay [13] it was -0.0026.
